PubChem BioAssay (NCI)
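Exposure lasted 48 hours, with cells grown in 96-well plates and compounds tested at five concentrations. GI50 = concentration required for 50% inhibition of growth. TGI marks complete inhibition of growth.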

Key:
Experiment in all cases: NCI anticancer screen, dose series, 48 h
SF-539 CNS = test system: SF-539 CNS
OVCAR-8 ovarian = test system: OVCAR-8 ovarian
COLO 205 colon = test system: COLO 205 colon
CCRF-CEM leukemia = test system: CCRF-CEM leukemia
SNB-75 CNS = test system: SNB-75 CNS
SN12C renal = test system: SN12C renal
HL-60(TB) leukemia = test system: HL-60(TB) leukemia
UACC-62 melanoma = test system: UACC-62 melanoma
SF-295 CNS = test system: SF-295 CNS
SW-620 colon = test system: SW-620 colon

Structure (SMILES)	GI50 (SF-539 CNS) [µM]	TGI (SF-539 CNS) [µM]	GI50 (OVCAR-8 ovarian) [µM]	TGI (OVCAR-8 ovarian) [µM]	GI50 (COLO 205 colon) [µM]	TGI (COLO 205 colon) [µM]	GI50 (CCRF-CEM leukemia) [µM]	TGI (CCRF-CEM leukemia) [µM]	GI50 (SNB-75 CNS) [µM]	TGI (SNB-75 CNS) [µM]	GI50 (SN12C renal) [µM]	TGI (SN12C renal) [µM]	GI50 (HL-60(TB) leukemia) [µM]	TGI (HL-60(TB) leukemia) [µM]	GI50 (UACC-62 melanoma) [µM]	TGI (UACC-62 melanoma) [µM]	GI50 (SF-295 CNS) [µM]	TGI (SF-295 CNS) [µM]	GI50 (SW-620 colon) [µM]	TGI (SW-620 colon) [µM]
COC(=O)C(C)N1C(=O)c2ccccc2I1OC(C)=O (stereo not given)	31.7	> 100	> 100	> 100	14.4	35	18.1	45.5	60.8	> 100	31.4	> 100	47.2	> 100	23	> 100	> 100	> 100	15.5	29.5
CCOC(=O)C1C(c2cc(OC)c(O)c(OC)c2)c2cc3c(cc2OC1(C)O)OCO3 (stereo not given)	–	> 100	–	> 100	–	> 100	–	> 100	–	77.9	–	> 100	–	> 100	–	> 100	–	> 100	–	> 100
Cc1cc(NS(=O)(=O)c2ccc(Nc3c4ccccc4nc4c(C(=O)NCCN(C)C)ccc(Cl)c34)cc2)no1	–	14.6	–	14	–	14.9	–	10.8	–	11.9	–	16.8	–	5.58	–	10.4	–	16.2	–	15.5
